Measurements: patent publication US5159102A, “7-thiaprostaglandins E, and process for producing same” (Teijin Limited, priority 1990, dated 1992)
In brackets after ≈: the same amount, converted by molar mass.

Tests used:
[1] = tested on: blood platelet aggregation (ADP, PRP); assay: In vitro blood platelet aggregation inhibition effect; format: cell-based, native Japanese white male domestic rabbits; conditions: Oryctolagus cuniculus, rabbit PRP, 10 μM ADP, 37° C., read-out: Anti-platelet aggregation effect IC50
Description: The in vitro blood platelet aggregation inhibition effect of the sample compounds to be tested was examined by using rabbits. That is, blood was collected from the ear vein of native Japanese white male domestic rabbits weighing 2.5 to 3.5 kg. The collected blood was 9 parts by volume per 1 part by volume of a 3.8% sodium citrate solution. The blood was centrifuged at 1000 r.p.m. for 10 minutes. The upper layer portion was separated as PRP (rich in platelet blood plasma). The lower layer portion was further centrifuged at 2800 r.p.m. for 10 minutes to divide it into two layers. The upper layer portion was separated as PPP (poor in platelet blood plasma). The number of the platelet was diluted with PPP to […]. After the adjustment, 25 μl of the sample compound was added to 250 μl of PRP, which was preincubated at a temperature of 37° C. for 2 minutes. Thereafter, 10 μM of ADP (final) was added to the preincubated PRP to record the variation of the transmittance by means of aggregometer. […]
When the activity of the sample compounds was determined, the ethanol solution was diluted with a phosphoric acid buffer (PH 7.4). The ethanol solution diluted with the buffer was left to stand at a temperature of 0° C. for 4 hours, after which the activity of the sample compounds was determined in the same manner.
The platelet aggregation inhibition was calculated by the following formula: […]

[2] = tested on: ulcer formation induced by indomethacin (stomach); assay: Inhibiting effect on ulcer formation induced by indomethacin (antiulcerative effect); format: in vivo; conditions: Rattus norvegicus, po; P.O., Wister male rats; 30 min before indomethacin 20 mg/kg p.o.; ulcer length 5 h after
Description: The inhibiting effect on ulcer formation induced by indomethacin was examined by using rats. Wister male rats (7 weeks old and body weight of 220 g) were abstained from food for 24 hours except giving water and then subjected to experiments.
The sample compounds to be tested were dissolved in a phosphoric acid buffer (pH 7.4) containing 0.9% NaCl and the solution was orally administered to the rats. 30 minutes after the administration, indomethacin was orally administered to the rats at a dose of 20 mg/kg. 5 hours after the administration of the indomethacin, the rats were killed and the ulcer formation in the stomach was examined by determining the length of the ulcer formation portion under a stereomicroscope. From this measurement, the inhibition of ulcer formation by the sample compounds were calculated to determine the ED values.

| Structure (SMILES) | IC50 [1] | ED50 [2] |
| --- | --- | --- |
| CCCCCC(O)/C=C/C1CCC(=O)C1SCCCCCC(=O)OC (stereo not shown) | > 100 µg/mL | 0.3 mg/kg |
| CCCCC(O)C/C=C/[C@H]1[C@H](O)CC(=O)[C@@H]1SCCCCCC(=O)OC (stereo partly shown) | 17 µg/mL (≈ 44 µM) | 0.01 mg/kg |
